From publication PMC12366525, “Characterization of allosteric modulators that disrupt androgen receptor co-activator protein-protein interactions to alter transactivation–Drug leads for metastatic castration resistant prostate cancer” (SLAS discovery : advancing life sciences R & D, 2023)
Several values for one entry are separate records, joined by “and”; a condition that tells them apart may be missing. Equal values may be shown once. Read-outs that look alike come from different tables or passages of the source.

Legend:
Assay type in all cases: cell-based
full length AR = target: T1, full length AR (Homo sapiens, UniProt P10275, T878A); assay: PSA-6.1 luciferase reporter assay in C4–2 CRPC cells; details: C4–2 cells; 50 nM DHT; 24 h; read-out: C4–2 PSA6.1-Luc Reporter IC50
T1 construct: DHT-induced full length AR directed TA; endogenous in cells; host or cells: C4–2 castration resistant prostate cancer cells
T1 sequence (P10275 1-920 T878A): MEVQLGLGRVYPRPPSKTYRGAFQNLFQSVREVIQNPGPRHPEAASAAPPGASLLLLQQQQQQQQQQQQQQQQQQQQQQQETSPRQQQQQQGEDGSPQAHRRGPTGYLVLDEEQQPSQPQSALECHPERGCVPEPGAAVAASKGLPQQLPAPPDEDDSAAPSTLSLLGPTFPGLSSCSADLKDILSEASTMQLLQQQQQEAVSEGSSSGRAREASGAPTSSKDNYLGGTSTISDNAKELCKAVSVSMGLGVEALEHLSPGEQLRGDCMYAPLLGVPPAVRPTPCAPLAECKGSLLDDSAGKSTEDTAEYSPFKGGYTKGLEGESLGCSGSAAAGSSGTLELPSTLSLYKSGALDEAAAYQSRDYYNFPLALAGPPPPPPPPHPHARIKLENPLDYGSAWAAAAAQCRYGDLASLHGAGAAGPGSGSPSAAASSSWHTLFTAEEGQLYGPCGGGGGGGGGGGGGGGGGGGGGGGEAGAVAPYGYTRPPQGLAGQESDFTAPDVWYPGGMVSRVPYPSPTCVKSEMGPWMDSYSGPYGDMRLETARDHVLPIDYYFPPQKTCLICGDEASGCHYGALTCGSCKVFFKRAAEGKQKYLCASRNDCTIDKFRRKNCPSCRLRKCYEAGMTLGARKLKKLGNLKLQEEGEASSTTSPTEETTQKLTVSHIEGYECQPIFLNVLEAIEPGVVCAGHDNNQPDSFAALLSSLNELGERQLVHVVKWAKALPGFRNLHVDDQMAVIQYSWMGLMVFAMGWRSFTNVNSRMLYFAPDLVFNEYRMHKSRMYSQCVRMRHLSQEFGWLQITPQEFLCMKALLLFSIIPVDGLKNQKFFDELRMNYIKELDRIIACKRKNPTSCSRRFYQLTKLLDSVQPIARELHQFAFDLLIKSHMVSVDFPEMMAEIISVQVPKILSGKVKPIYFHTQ
Method: The PSA-6.1-Luc luciferase reporter plasmid was provided by Dr. Zhou Wang in the Urology department of the University of Pittsburgh Cancer Institute. The PSA-6.1-Luc reporter is controlled by a fragment of the PSA promoter that contains at least three AREs. The PSA-6.1-Luc plasmid (12 ng/well) was combined with Fugene 6 at a ratio 6:1 in SFM and incubated for 25 min at room temperature before being combined with C4–2 cells suspended in RPMI 1640 media containing 1% penicillin-streptomycin, 1% L-glutamine, and 10% FBS. Transfected cells were then seeded into white opaque 384-well assay plates (Greiner Bio-one, #781080) at 6000 cells per well in a volume of 30 μL and incubated in 5% CO2, 37 °C, and 95% humidity for 24 h.

PC-3 cells = assay: Prostate cancer cell line growth inhibition assay, PC-3; details: read-out: PC3 GI50 (AR−)
Method: The PC-3, DU-145, LNCaP, C4–2, and 22Rv1 PC cell line growth inhibition assays have been described previously. On day 1, each PC cell line was harvested, counted, and seeded into two 384-well assay plates, a time zero (T0) and a time 72 h (T72) plate. PC cell lines were all seeded at 1000 cells per well in 45 μL of tissue culture media in uncoated white clear bottom 384-well assay plates (VWR, # 82050–076) using a Matrix electronic multichannel pipette (Thermo Fisher Scientific, Waltham, MA) and cultured overnight at 37 °C, 5% CO2, and 95% humidity. On day 2, 25 μL of the Cell Titer Glo (CTG) (Promega Corporation, Madison, WI) detection reagent was dispensed into the wells of the T0 assay plate using a Matrix electronic multichannel pipette, and the RLUs were captured on the SpectraMax M5e (Molecular Devices LLC, Sunnyvale, CA) microtiter plate reader. Also on day 2, 5 μL of compounds were transferred into the test wells of the T72 384-well assay plates which were returned to the incubator for 72 h. Control wells received DMSO alone. On day 5, 25 μL of the CTG detection reagent was dispensed into the wells of the T72 assay plate using a Matrix electronic multichannel pipette, and the RLU’s were captured on the SpectraMax M5e microtiter plate reader platform.
In 384-well assays, DMSO minimum (n = 32) and maximum (n = 32) plate control wells were utilized to calculate signal-to-background ratios (S:B) and Z’-factor coefficient assay performance quality control statistics, and to normalize the signals of compound treated wells and to represent 0% and 100% respectively. For the 96-well AR-LBD H^3-DHT radioligand binding assay, eight minimum and maximum plate control wells were utilized to normalize the data. For the PC cell line growth inhibition assays we used the DMSO control data from the T0 and T72 assay plates to assess the dynamic range of the T0 to T72 cell growth, and to calculate S:B ratios and Z’-factor coefficient statistics for the assay signal window (T0 to T72). To normalize the 72 h compound exposure PC growth inhibition data, the signals from the compound treated wells were processed and expressed as% of the T72 DMSO plate controls. IC50 and GI50 values for each of the bioassays were calculated using Graph-Pad Prism 9 software to plot and fit data to curves using the Sigmoidal dose response variable slope equation Y = Bottom + [Top-Bottom]/ [1 + 10^^(LogEC50-X)*HillSlope].

[1] = C4–2 PSA6.1-Luc viability counter screen; details: human, C4–2 cells (C4–2 PSA6.1-Luc); cytotoxicity counter screen; read-out: C4–2 PSA6.1-Luc viability CS GI50

SMILES | IC50 (full length AR) | GI50 (PC-3 cells; 72 h) [µM] | GI50 (PC-3 cells; Homo sapiens, PC-3, 72 h) [µM] | GI50 [1] [µM]
Cc1ccccc1-c1cc(O)c2c(c1)CN(c1nc(C(N)=O)cs1)CCO2 [S1–1] | 17.1 µM | 70.3 | 70 | > 100
Cc1ccccc1-c1cc(O)c2c(c1)CN(c1nccs1)CCO2 [S1–3] | 29.7 µM | > 100 | – | –
Cc1nsc(NC(=O)N2CCC(Sc3ccccc3C)CC2)n1 [S2–6] | 2 µM and 2.3 µM | – | > 100 | > 100
CC(=O)NCCC(=O)NCc1ccc2[nH]c(-c3ccccc3F)c(C)c2c1 [S3–13] | 58.5 µM | – | > 100 | > 100

Now from value to compound, other results behind:

IC50 (full length AR) | GI50 (PC-3 cells; 72 h) [µM] | GI50 (PC-3 cells; Homo sapiens, PC-3, 72 h) [µM] | SMILES | GI50 [1] [µM]
9 µM | – | 32.6 | Cc1c(-c2ccccc2F)[nH]c2ccc(CNC(=O)CCc3cn[nH]c3)cc12 [S3–11] | > 100
7.7 µM | – | 18.4 | Cc1c(-c2ccccc2F)[nH]c2ccc(CNC(=O)CCc3cnccn3)cc12 [S3–12] | > 100
10.8 µM | – | > 100 | Cc1c(-c2ccccc2F)[nH]c2ccc(CNC(=O)c3ccc(CO)o3)cc12 [S3–14] | > 100
7 µM | – | 23.7 | Cc1c(-c2ccc(F)cc2)[nH]c2ccc(CNC(=O)c3ccc(CO)o3)cc12 [S3–15] | > 100
